Assay [1] addresses Peptidyl-prolyl cis-trans isomerase FKBP1A (Homo sapiens) (UniProt P62942). Put plainly: Immunosuppressive activity in FK506 binding protein 12 binding assay as inhibitory concentration (rIC50) relative to FK506 IC50 (1.2 nM).
A short description of assay [2]: In vitro immunosuppressive activity measured in the interleukin-2 receptor gene assay (IL-2 RGA) in mitogen-stimulated human T-cell line; relative to FK506.
The species entered for a further assay is Mus musculus. In words: In vitro immunosuppressive activity measured in the mouse mixed lymphocyte reaction (MLR) expressed as relative inhibitory concentration (rIC50) relative to FK506 IC50 (0.3 nM). In kind it is functional.

Sequence of Peptidyl-prolyl cis-trans isomerase FKBP1A (Homo sapiens) (P62942 whole entry): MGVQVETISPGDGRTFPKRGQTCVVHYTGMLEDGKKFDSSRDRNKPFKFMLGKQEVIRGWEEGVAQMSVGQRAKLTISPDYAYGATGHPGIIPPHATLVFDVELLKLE

With `CC[C@@H]1/C=C(\C)C[C@H](C)C[C@H](OC)[C@H]2O[C@@](O)(C(=O)C(=O)N3CCCC[C@H]3C(=O)O[C@H](/C(C)=C/[C@@H]3CC[C@@H](O)[C@H](OC)C3)[C@H](C)[C@@H](O)CC1=O)[C@H](C)C[C@@H]2OC` [ASCOMYCIN], the rIC50 in assay [1] worked out at 0.9; in assay [2], 1.7; in the assay filed under Mus musculus it was 1.9.
On to `CC[C@@H]1/C=C(\C)C[C@H](C)C[C@H](OC)[C@H]2O[C@@](O)(C(=O)C(=O)N3CCCC[C@H]3C(=O)O[C@H](/C(C)=C/[C@@H]3CC[C@@H](OC(=S)NC(=O)c4ccco4)[C@H](OC)C3)[C@H](C)[C@@H](O)CC1=O)[C@H](C)C[C@@H]2OC`, for which the values for the rIC50 (in assay [1]; in assay [2]; in the assay listed under Mus musculus) were 3.4, 3.5 and 7.6, respectively.
Consider `CC[C@@H]1/C=C(\C)C[C@H](C)C[C@H](OC)[C@H]2O[C@@](O)(C(=O)C(=O)N3CCCC[C@H]3C(=O)O[C@H](/C(C)=C/[C@@H]3CC[C@@H](OC(=O)NC(=O)c4ccccc4)[C@H](OC)C3)[C@H](C)[C@@H](O)CC1=O)[C@H](C)C[C@@H]2OC`, for which the rIC50 in assay [1] came out at 1.3; in assay [2] it was 1.2; in the assay filed under Mus musculus, 2.9.
Taken in the same sequence, the figures for `CC[C@@H]1/C=C(\C)C[C@H](C)C[C@H](OC)[C@H]2O[C@@](O)(C(=O)C(=O)N3CCCC[C@H]3C(=O)O[C@H](/C(C)=C/[C@@H]3CC[C@@H](OC(=S)NC(=O)CCC(=O)OC)[C@H](OC)C3)[C@H](C)[C@@H](O)CC1=O)[C@H](C)C[C@@H]2OC` were 1.6, 4.6 and 19.
Taken in the same sequence, the figures for `CC[C@@H]1/C=C(\C)C[C@H](C)C[C@H](OC)[C@H]2O[C@@](O)(C(=O)C(=O)N3CCCC[C@H]3C(=O)O[C@H](/C(C)=C/[C@@H]3CC[C@@H](OC(=S)NC(=O)C[C@@H]4OC(C)(C)OC4=O)[C@H](OC)C3)[C@H](C)[C@@H](O)CC1=O)[C@H](C)C[C@@H]2OC` were 0.9, 12 and 12.
Taken in the same sequence, the figures for `CC[C@@H]1/C=C(\C)C[C@H](C)C[C@H](OC)[C@H]2O[C@@](O)(C(=O)C(=O)N3CCCC[C@H]3C(=O)O[C@H](/C(C)=C/[C@@H]3CC[C@@H](OC(=S)NC(=O)c4ccccc4)[C@H](OC)C3)[C@H](C)[C@@H](O)CC1=O)[C@H](C)C[C@@H]2OC` were 6.3, 3.4 and 11.
On to `CC[C@@H]1/C=C(\C)C[C@H](C)C[C@H](OC)[C@H]2O[C@@](O)(C(=O)C(=O)N3CCCC[C@H]3C(=O)O[C@H](/C(C)=C/[C@@H]3CC[C@@H](OC(=S)NC(=O)c4ccc5ccccc5c4)[C@H](OC)C3)[C@H](C)[C@@H](O)CC1=O)[C@H](C)C[C@@H]2OC`, for which the rIC50 in assay [1] turned out to be 6.6; in assay [2], 6.5; in the assay listed under Mus musculus, 15.
`CC[C@@H]1/C=C(\C)C[C@H](C)C[C@H](OC)[C@H]2O[C@@](O)(C(=O)C(=O)N3CCCC[C@H]3C(=O)O[C@H](/C(C)=C/[C@@H]3CC[C@@H](OC(=S)N(C)C(=O)CCC(=O)OC)[C@H](OC)C3)[C@H](C)[C@@H](O)CC1=O)[C@H](C)C[C@@H]2OC`: the rIC50 in assay [1] amounted to 2.7; in assay [2] it was 6.9; in the assay listed under Mus musculus, 36.
Taken in the same sequence, the figures for `CC[C@@H]1/C=C(\C)C[C@H](C)C[C@H](OC)[C@H]2O[C@@](O)(C(=O)C(=O)N3CCCC[C@H]3C(=O)O[C@H](/C(C)=C/[C@@H]3CC[C@@H](OC(=S)NC(=O)c4ccc(C(=O)OC)cc4)[C@H](OC)C3)[C@H](C)[C@@H](O)CC1=O)[C@H](C)C[C@@H]2OC` were 7.3, 9 and 8.4.
Taken in the same sequence, the figures for `CC[C@@H]1/C=C(\C)C[C@H](C)C[C@H](OC)[C@H]2O[C@@](O)(C(=O)C(=O)N3CCCC[C@H]3C(=O)O[C@H](/C(C)=C/[C@@H]3CC[C@@H](OC(=O)NNc4ccccc4)[C@H](OC)C3)[C@H](C)[C@@H](O)CC1=O)[C@H](C)C[C@@H]2OC` were 1.5, 0.7 and 2.5.
Turning to `C=CC[C@@H]1/C=C(\C)C[C@H](C)C[C@H](OC)[C@H]2O[C@@](O)(C(=O)C(=O)N3CCCC[C@H]3C(=O)O[C@H](/C(C)=C/[C@@H]3CC[C@@H](O)[C@H](OC)C3)[C@H](C)[C@@H](O)CC1=O)[C@H](C)C[C@@H]2OC` [TACROLIMUS ANHYDROUS], the rIC50 (in assay [1]; in assay [2]; in the assay listed under Mus musculus) was 1 each time.
